Results taken from ChEMBL document CHEMBL3826873, “Efficient transmembrane anion transport mediated by a bis(imidazolyl)-functionalized bis(choloyl) conjugate” (Bioorg Med Chem Lett, 2016).
Activity calls are given as the source filed them. No cut-off for these calls is given here.

What was measured:
[1] = Anionophoric activity across egg yolk phosphatidylcholine-based liposomal membrane vesicles (unknown origin) assessed as efflux of chloride anions after 300 seconds in presence of sodium nitrate in external solution by electrode technique; assay type: ADME; conditions: artificial membrane, 5 min
[2] = Anionophoric activity across egg yolk phosphatidylcholine-based liposomal membrane vesicles (unknown origin) assessed as relative chloride efflux measured as ratio of intrinsic rate constant and dissociation constant of self-association process after 300 seconds in presence of sodium nitrate in external solution by electrode technique; assay type: ADME; conditions: artificial membrane, 5 min
[3] = Anionophoric activity across egg yolk phosphatidylcholine-based liposomal membrane vesicles (unknown origin) assessed as efflux of chloride anions at 3 mol% after 300 seconds in presence of Li+ by electrode technique; assay type: ADME; conditions: artificial membrane, 5 min
[4] = Anionophoric activity across egg yolk phosphatidylcholine-based liposomal membrane vesicles (unknown origin) assessed as efflux of chloride anions at 3 mol% after 300 seconds in presence of Na+ by electrode technique; assay type: ADME; conditions: artificial membrane, 5 min
[5] = Anionophoric activity across egg yolk phosphatidylcholine-based liposomal membrane vesicles (unknown origin) assessed as efflux of chloride anions at 3 mol% after 300 seconds in presence of K+ by electrode technique; assay type: ADME; conditions: artificial membrane, 5 min
[6] = Anionophoric activity across egg yolk phosphatidylcholine-based liposomal membrane vesicles (unknown origin) assessed as efflux of chloride anions at 3 mol% after 300 seconds in presence of Rb+ by electrode technique; assay type: ADME; conditions: artificial membrane, 5 min
[7] = Anionophoric activity across egg yolk phosphatidylcholine-based liposomal membrane vesicles (unknown origin) assessed as efflux of chloride anions at 3 mol% after 300 seconds in presence of Cs+ by electrode technique; assay type: ADME; conditions: artificial membrane, 5 min
[8] = Anionophoric activity across egg yolk phosphatidylcholine-based liposomal membrane vesicles (unknown origin) assessed as efflux of chloride anions at 5 mol% after 300 seconds in presence of sodium sulfate by electrode technique; assay type: ADME; conditions: artificial membrane, 5 min
[9] = Anionophoric activity across egg yolk phosphatidylcholine-based liposomal membrane vesicles (unknown origin) assessed as induction of pH discharge at 3 mol% after 20 mins in presence of NO3- by fluorescence based pyranine entrap assay; conditions: artificial membrane
[10] = Anionophoric activity across egg yolk phosphatidylcholine-based liposomal membrane vesicles (unknown origin) assessed as induction of pH discharge at 3 mol% after 20 mins in presence of Cl- by fluorescence based pyranine entrap assay; conditions: artificial membrane
[11] = Anionophoric activity across egg yolk phosphatidylcholine-based liposomal membrane vesicles (unknown origin) assessed as induction of pH discharge at 3 mol% after 20 mins in presence of Br- by fluorescence based pyranine entrap assay; conditions: artificial membrane
[12] = Anionophoric activity across egg yolk phosphatidylcholine-based liposomal membrane vesicles (unknown origin) assessed as induction of pH discharge at 3 mol% after 20 mins in presence of I- by fluorescence based pyranine entrap assay; conditions: artificial membrane
[13] = Anionophoric activity across 70% POPC/30% cholesterol-based liposomal membrane vesicles (unknown origin) assessed as induction of pH discharge at 3 mol% after 20 mins by fluorescence based pyranine entrap assay

| Structure (SMILES) | Activity [1] | Ratio [2] | Activity [3] | Activity [4] | Activity [5] | Activity [6] | Activity [7] | Activity [8] | Activity [9] | Activity [10] | Activity [11] | Activity [12] | Activity [13] |
| --- | --- | --- | --- | --- | --- | --- | --- | --- | --- | --- | --- | --- | --- |
| C[C@H](CCC(=O)NCc1ccc(CNC(=O)CC[C@@H](C)[C@H]2CC[C@H]3[C@@H]4[C@H](O)C[C@@H]5C[C@H](O)CC[C@]5(C)[C@H]4C[C@H](O)[C@]23C)cc1)[C@H]1CC[C@H]2[C@@H]3[C@H](O)C[C@@H]4C[C@H](O)CC[C@]4(C)[C@H]3C[C@H](O)[C@]12C | Not Active |  |  |  |  |  |  |  |  |  |  |  |  |
| C[C@H](CCC(=O)NC(Cc1cnc[nH]1)C(=O)NCc1ccc(CNC(=O)C(Cc2cnc[nH]2)NC(=O)CC[C@@H](C)[C@@H]2CC[C@@H]3[C@@H]4[C@@H](C[C@@H](O)[C@]32C)[C@]2(C)CC[C@H](O)C[C@@H]2C[C@@H]4O)cc1)[C@H]1CC[C@H]2[C@@H]3[C@H](O)C[C@@H]4C[C@H](O)CC[C@]4(C)[C@H]3C[C@H](O)[C@]12C (some centres undefined) | Dose-dependent effect | 1.45 ×10⁻² /s | Active | Active | Active | Active | Active | Active | Active | Active | Active | Active | Active |
